Read-outs that look alike come from different tables or passages of the source. Blank lines part the entries; values can stand above or below the compound they belong to.
Target: T1, Recombinant human cathepsin A (Homo sapiens, UniProt P10619)
T1 construct: Recombinant human cathepsin A (residues 29-480, with a C-terminal 10-His tag); 10-His (C); purchased R&D Systems 1049-SE
T1 sequence (P10619 29-312 limits assumed): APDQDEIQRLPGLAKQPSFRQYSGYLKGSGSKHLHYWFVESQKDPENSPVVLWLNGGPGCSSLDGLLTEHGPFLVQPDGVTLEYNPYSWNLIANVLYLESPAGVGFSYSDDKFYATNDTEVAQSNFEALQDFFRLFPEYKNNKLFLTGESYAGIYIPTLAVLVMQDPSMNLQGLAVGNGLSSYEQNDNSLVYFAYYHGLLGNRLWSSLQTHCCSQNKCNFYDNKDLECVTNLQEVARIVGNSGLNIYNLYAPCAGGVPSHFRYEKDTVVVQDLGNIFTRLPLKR
T1 sequence (P10619 327-480 limits assumed): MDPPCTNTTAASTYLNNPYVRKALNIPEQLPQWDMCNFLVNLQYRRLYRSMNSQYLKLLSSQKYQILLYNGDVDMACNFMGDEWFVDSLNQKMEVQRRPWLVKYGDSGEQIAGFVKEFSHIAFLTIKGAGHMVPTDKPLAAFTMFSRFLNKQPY
Assay: Cathepsin A inhibitory activity
Type: biochemical
Procedure, shortened: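 Human cathepsin A (res. 29-480, C-His10) pre-activated with cathepsin L (MES pH 6.0, DTT, 15 min, 37 °C; quenched with 10 μM E-64). Enzyme (833 ng/ml) preincubated 15 min RT with compound in MES pH 5.5/DTT, then 2 μM Bodipy FL-bradykinin for 15 min RT. Capillary electrophoresis product/substrate peak areas; IC50 from % inhibition.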

[1] = read-out: Activity (2): Cathepsin A inhibitory activity, IC50 class
[2] = read-out: Activity (2): Cathepsin A inhibitory activity (IC50 class)
[3] = recombinant human cathepsin A, read-out: Activity (2): Cathepsin A inhibitory activity, IC50 class
[4] = pharmacological test "Cathepsin A inhibitory activity", IC50 given as class A/B/C, read-out: Activity (2): Cathepsin A inhibitory activity, IC50 class
[5] = recombinant human cathepsin A 833 ng/ml, Bodipy FL-labeled bradykinin 2 μM, pH 5.5, read-out: CATH-A IC50

IC50 [1]: 1000 to 30000 nM
Structure (SMILES): COc1ccccc1[C@@H](NC(=O)c1cc(O)n(-c2cccc(F)c2)n1)[C@@H](O)C(=O)O [Example 316]

IC50 [2]: < 100 nM
Structure (SMILES): COc1cc(C(=O)N[C@@H](CC(=O)O)c2cccc(Cl)c2Cl)nn1-c1ccccc1 [Example 596]

IC50 [3]: 100 to 1000 nM
Structure (SMILES): O=C(O)CC(NC(=O)c1cc(O)n(-c2ccccc2F)n1)c1cc(F)ccc1C(F)(F)F (stereo not drawn) [Example 477]

IC50 [1]: 100 to 1000 nM
Structure (SMILES): Cc1cc(F)ccc1C(CC(=O)O)NC(=O)c1cc(O)n(-c2ccc(Cl)cc2)n1 (stereo not drawn) [Example 292]

IC50 [3]: 1000 to 30000 nM
Structure (SMILES): COc1cc(C(=O)N[C@@H](CC(=O)NC(C)(C)C)c2ccccc2C)nn1-c1ccccc1F [Example 922, 1-(2-Fluoro-phenyl)-5-methoxy-1H-pyrazole-3-carboxylic acid ((S)-2-tert-butylcarbamoyl-1-o-tolyl-ethyl)-amide]

IC50 [1]: 1000 to 30000 nM
Structure (SMILES): Cc1ccccc1[C@H](CC(=O)O)NC(=O)c1cc(OC[C@@](C)(O)C(C)C)n(-c2ccccc2F)n1 (single isomer, unassigned) [Example 833]

IC50 [1]: 100 to 1000 nM
Structure (SMILES): COc1ccc(C(CC(=O)O)NC(=O)c2cc(O)n(-c3cccc(F)c3)n2)c(OC)c1 (stereo not drawn) [Example 306]

IC50 [1]: 1000 to 30000 nM
Structure (SMILES): COc1ccc(C(CC(=O)O)NC(=O)c2cc(O)n(-c3cc(C)ccc3C)n2)cc1F (stereo not drawn) [Example 54]

IC50 [1]: 100 to 1000 nM
Structure (SMILES): O=C(O)CC(NC(=O)c1cc(O)n(-c2ccc(F)cc2)n1)c1ccc(-c2ccccc2)cc1 (stereo not drawn) [Example 365]

IC50 [2]: 100 to 1000 nM
Structure (SMILES): Cc1ccccc1[C@H](CC(=O)O)NC(=O)c1cc(O)n(C2CCCC2)n1 [Example 572]

IC50 [1]: 1000 to 30000 nM
Structure (SMILES): Cc1ccc(C)c(-n2nc(C(=O)NC(CC(=O)O)C3CCCCC3)cc2O)c1 (stereo not drawn) [Example 37]

IC50 [1]: 100 to 1000 nM
Structure (SMILES): O=C(O)C[C@H](NC(=O)c1cc(O)n(-c2ccccc2)n1)c1cccnc1 [Example 137]

IC50 [1]: 1000 to 30000 nM
Structure (SMILES): COc1ccc(C(CC(=O)O)NC(=O)c2cc(O)n(-c3cc(C)ccc3C)n2)cc1 (stereo not drawn) [Example 27]

IC50 [4]: 1000 to 30000 nM
Structure (SMILES): COc1ccccc1[C@@H](NC(=O)c1cc(O)n(-c2ccc(F)cc2F)n1)[C@@H](O)C(=O)O [Example 188]

IC50 [1]: < 100 nM
Structure (SMILES): Cc1ccccc1[C@H](CC(=O)O)NC(=O)c1cc(O)n(-c2cccc(F)c2)n1 [Example 74]

IC50 [1]: 100 to 1000 nM
Structure (SMILES): COc1ccccc1[C@H](CC(=O)O)NC(=O)c1cc(O)n(-c2ccc(F)cc2)n1 [Example 342]

IC50 [2]: 100 to 1000 nM
Structure (SMILES): CCOc1cc(C(=O)N[C@@H](CC(=O)O)c2ccccc2)nn1-c1ccccc1Cl [Example 726]

IC50 [5]: 186 nM
IC50 [3]: 100 to 1000 nM
Structure (SMILES): Cc1ccc([C@H](CC(=O)O)NC(=O)c2cc(O)n(-c3ccc(F)cc3F)n2)cc1 [Example 454, (S)-3-{[1-(2,4-Difluoro-phenyl)-5-hydroxy-1H-pyrazole-3-carbonyl]-amino}-3-p-tolyl-propionic acid]

IC50 [4]: 100 to 1000 nM
Structure (SMILES): O=C(O)CC(NC(=O)c1cc(O)n(-c2cccc(Cl)c2)n1)c1ccccc1F (stereo not drawn) [Example 254]

IC50 [1]: 1000 to 30000 nM
Structure (SMILES): O=C(O)CC(NC(=O)c1cc(O)n(-c2ccc(F)c(Cl)c2)n1)c1ccc(F)cc1 (stereo not drawn) [Example 72]

IC50 [1]: 1000 to 30000 nM
Structure (SMILES): Cc1ccc(C(CC(=O)O)NC(=O)c2cc(O)n(-c3ccc(F)c(Cl)c3)n2)c(C)c1 (stereo not drawn) [Example 91]

IC50 [1]: 100 to 1000 nM
Structure (SMILES): Cc1cccc([C@H](CC(=O)O)NC(=O)c2cc(O)n(-c3ccc(Cl)cc3)n2)c1 [Example 284]

IC50 [2]: < 100 nM
Structure (SMILES): Cc1ccccc1[C@H](CC(=O)O)NC(=O)c1cc(OC[C@H](O)C2CC2)n(-c2ccccc2F)n1 (single isomer, unassigned) [Example 760]

Structure (SMILES): CC(C)(C)[C@@](C)(O)COc1cc(C(=O)N[C@@H](CC(=O)O)c2ccccc2Cl)nn1-c1ccccc1F [Example 790, (S)-3-(2-Chloro-phenyl)-3-{[1-(2-fluoro-phenyl)-5-((R)-2-hydroxy-2,3,3-trimethyl-butoxy)-1H-pyrazole-3-carbonyl]-amino}-propionic acid]
IC50 [2]: < 100 nM

IC50 [2]: < 100 nM
IC50 [5]: 2.56 nM
Structure (SMILES): Cc1ccccc1[C@H](CC(=O)O)NC(=O)c1cc(OC[C@@](C)(O)C(C)(C)C)n(-c2ccccc2F)n1 (single isomer, unassigned) [Example 748]

IC50 [5]: 246 nM
IC50 [3]: 100 to 1000 nM
Structure (SMILES): O=C(O)CC(NC(=O)c1cc(O)n(-c2ccc(F)cc2)n1)c1cc(Cl)ccc1Cl (stereo not drawn) [Example 493, 3-(2,5-Dichloro-phenyl)-3-{[1-(4-fluoro-phenyl)-5-hydroxy-1H-pyrazole-3-carbonyl]-amino}-propionic acid]

IC50 [1]: 100 to 1000 nM
Structure (SMILES): COc1ccc([C@H](CC(=O)O)NC(=O)c2cc(O)n(-c3ccccc3Cl)n2)cc1 [Example 392]

IC50 [1]: 100 to 1000 nM
Structure (SMILES): O=C(O)C[C@H](NC(=O)c1cc(O)n(-c2ccc(F)cc2)n1)c1cccc(F)c1 [Example 349]

IC50 [4]: 1000 to 30000 nM
Structure (SMILES): O=C(O)CC(NC(=O)c1cc(O)n(-c2ccccc2F)n1)c1cccc(OCc2ccccc2)c1 (stereo not drawn) [Example 229]

Structure (SMILES): Cc1ccc([C@H](CC(=O)O)NC(=O)c2cc(OC[C@@H](O)C(C)(C)C)n(-c3ccccc3F)n2)cc1 [Example 801, (S)-3-{[1-(2-Fluoro-phenyl)-5-((S)-2-hydroxy-3,3-dimethyl-butoxy)-1H-pyrazole-3-carbonyl]-amino}-3-p-tolyl-propionic acid]
IC50 [1]: < 100 nM

IC50 [1]: 100 to 1000 nM
Structure (SMILES): O=C(O)C[C@H](NC(=O)c1cc(O)n(-c2ccc(F)cc2F)n1)c1c(F)cccc1F [Example 388]

IC50 [4]: 100 to 1000 nM
Structure (SMILES): Cc1cccc([C@H](CC(=O)O)NC(=O)c2cc(O)n(-c3ccc(F)cc3F)n2)c1 [Example 190]

IC50 [2]: < 100 nM
Structure (SMILES): CCOc1cc(C(=O)N[C@@H](CC(=O)O)c2ccc(Cl)cc2)nn1-c1ccccc1F [Example 713]

IC50 [2]: 1000 to 30000 nM
IC50 [5]: 1390 nM
Structure (SMILES): COc1ccc(F)c(C(CC(=O)O)NC(=O)c2cc(O)n(-c3ccccc3)n2)c1 (stereo not drawn) [Example 547, 3-(2-Fluoro-5-methoxy-phenyl)-3-[(5-hydroxy-1-phenyl-1H-pyrazole-3-carbonyl)-amino]-propionic acid]

IC50 [1]: 100 to 1000 nM
Structure (SMILES): O=C(O)CC(NC(=O)c1cc(O)n(-c2ccc(F)cc2)n1)c1cccc(C(F)(F)F)c1Cl (stereo not drawn) [Example 362]

IC50 [4]: 100 to 1000 nM
Structure (SMILES): O=C(O)CC(NC(=O)c1cc(O)n(-c2ccccc2Cl)n1)c1ccc(Cl)c(Cl)c1 (stereo not drawn) [Example 227]

IC50 [1]: 100 to 1000 nM
Structure (SMILES): O=C(O)CC(NC(=O)c1cc(O)n(-c2ccc(F)cc2F)n1)c1cccc(Oc2ccc(Cl)cc2)c1 (stereo not drawn) [Example 386]

IC50 [4]: 100 to 1000 nM
Structure (SMILES): O=C(O)C[C@H](NC(=O)c1cc(O)n(-c2ccc(F)cc2F)n1)c1ccc(Cl)cc1Cl [Example 201]

IC50 [2]: 1000 to 30000 nM
IC50 [5]: 1740 nM
Structure (SMILES): O=C(O)CC(NC(=O)c1cc(O)n(-c2ccccc2)n1)c1ccc(-n2cncn2)cc1 (stereo not drawn) [Example 563, 3-[(5-Hydroxy-1-phenyl-1H-pyrazole-3-carbonyl)-amino]-3-(4-[1,2,4]triazol-1-yl-phenyl)-propionic acid]

IC50 [2]: 1000 to 30000 nM
Structure (SMILES): O=C(O)CC(NC(=O)c1cc(O)n(-c2ccccc2)n1)c1ccc(-c2ccc(C(F)(F)F)cc2)cc1 (stereo not drawn) [Example 579]

IC50 [1]: 100 to 1000 nM
Structure (SMILES): Cc1cccc(C(CC(=O)O)NC(=O)c2cc(O)n(-c3ccccc3)n2)c1 (stereo not drawn) [Example 65]

IC50 [1]: 1000 to 30000 nM
Structure (SMILES): CC(C)(CC(=O)O)NC(=O)c1cc(O)n(-c2ccccc2)n1 [Example 4]

IC50 [4]: < 100 nM
Structure (SMILES): O=C(O)C[C@H](NC(=O)c1cc(O)n(-c2ccccc2Cl)n1)c1cccc(Cl)c1Cl [Example 212]

IC50 [1]: 1000 to 30000 nM
Structure (SMILES): COc1ccc(C(CC(=O)O)NC(=O)c2cc(O)n(-c3ccccc3)n2)cc1OC (stereo not drawn) [Example 11]

IC50 [1]: 1000 to 30000 nM
Structure (SMILES): O=C(O)CC(NC(=O)c1cc(O)n(-c2ccccc2)n1)c1ccc(-n2ccnc2)cc1 (stereo not drawn) [Example 105]

IC50 [4]: 100 to 1000 nM
Structure (SMILES): O=C(O)CC(NC(=O)c1cc(O)n(-c2ccc(F)cc2F)n1)c1cccc(Cl)c1Cl (stereo not drawn) [Example 186]

Reference: patent US8664257B2, “Oxygen-substituted 3-heteroaroylamino-propionic acid derivatives and their use as pharmaceuticals” (Sanofi, priority 2010, dated 2014)
